Test results taken from patent publication US9434763B2, “Derivatives of pyridinone as inhibitors for tissue transglutaminase” (ZEDIRA GMBH, priority 2012, dated 2016).

Target: T1, His tagged recombinant human tissue transglutaminase (His6-rh-TG2) (Homo sapiens, UniProt P21980)
T1 construct: purchased Zedira T002
T1 sequence (P21980 1-687): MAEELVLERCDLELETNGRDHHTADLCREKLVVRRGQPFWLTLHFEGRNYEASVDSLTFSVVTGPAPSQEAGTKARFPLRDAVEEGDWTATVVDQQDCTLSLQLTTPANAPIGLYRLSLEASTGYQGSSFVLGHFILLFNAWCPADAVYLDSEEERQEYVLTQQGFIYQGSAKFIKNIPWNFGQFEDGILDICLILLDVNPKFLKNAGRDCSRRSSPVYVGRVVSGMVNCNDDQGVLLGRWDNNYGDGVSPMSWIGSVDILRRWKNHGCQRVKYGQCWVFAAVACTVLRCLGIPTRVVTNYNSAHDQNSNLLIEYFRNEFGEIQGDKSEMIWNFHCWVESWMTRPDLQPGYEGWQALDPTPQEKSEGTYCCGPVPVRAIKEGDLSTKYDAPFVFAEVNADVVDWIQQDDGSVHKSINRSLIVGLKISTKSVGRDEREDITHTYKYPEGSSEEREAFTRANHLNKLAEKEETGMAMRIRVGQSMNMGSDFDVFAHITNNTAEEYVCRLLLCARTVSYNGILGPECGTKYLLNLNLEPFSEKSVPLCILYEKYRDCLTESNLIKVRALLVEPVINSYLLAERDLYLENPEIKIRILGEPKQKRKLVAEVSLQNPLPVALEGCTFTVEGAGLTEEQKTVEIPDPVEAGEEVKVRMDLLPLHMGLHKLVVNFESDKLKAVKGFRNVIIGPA
Experiment: Inactivation of human tissue transglutaminase, fluorescence assay with Abz-APE(CAD-DNP)QEA-OH
Type: biochemical
Conditions: substrate Abz-APE(CAD-DNP)QEA-OH, 37° C., pH=7.5
Procedure: General Method for Inactivation of Human Tissue Transglutaminase
250 μg lyophilized His tagged recombinant human tissue transglutaminase (His6-rh-TG2, Zedira product T002) are reconstituted by adding 150 μl water (resulting buffer 50 mM NaH2PO4, 150 mM NaCl, pH=8.0).
A 10 mM inhibitor stock solution in DMSO is prepared and is diluted with buffer (50 mM Tris-HCl, 10 mM CaCl2, 5 mM DTT, pH=7.5) each to the twentyfold of the concentration desired in the preparation (but at least 1/50 dilution resulting in a 2% DMSO concentration).
900 μl of an assay-solution consisting of 55.56 mM Tris, 11.11 mM CaCl2, 0.11% PEG8000, 5.56 mM DTT, 5.56 mM glycine methyl ester and 50 μM Abz-APE(CAD-DNP)QEA-OH, (Zedira product A102; patent No.: EP 1781807B1), pH=7.5 are added to a cuvette and heated in a measuring cell of a spectrophotometer to 37° C. 50 μl of the particular inhibitor solution are added to this solution (resulting in a concentration of less than 0.2% DMSO in the mixture).
7 μl of the transglutaminase solution reconstituted above are diluted with 51 μl buffer (50 mM Tris, 100 mM NaCl, 5 mM DTT, pH=7.5). 50 μl of this enzyme solution (10 μg His6-rhTG2) are added to the assay-solution containing the particular inhibitor concentration. It is incubated 5 min at 37° C. before measuring starts (λexc=313 nm and λem=418 nm, t=15 to 30 min).
The evaluation of the resulting enzyme activity is done using the slope of the straight line obtained by the increase in fluorescence.
To determine the non-inhibited enzyme activity, DMSO instead of inhibitor stock solution is used. IC50 values are determined by plotting the resulting enzyme activity against the logarithm of the inhibitor concentration. IC50 is defined as the concentration of inhibitor resulting in 50% of enzyme activity.

IC50	Structure (SMILES)
137 nM	CCOC(=O)/C=C/CC[C@H](NC(=O)c1ccc(S(N)(=O)=O)cc1)C(=O)Nc1cccn(CC(=O)NCCC(C)C)c1=O [A14, (S,E)-Ethyl 7-(1-(2-(isopentylamino)-2-oxoethyl)-2-oxo-1,2-dihydropyridin-3-ylamino)-7-oxo-6-(4-sulfamoylbenzamido)hept-2-enoate]
92 nM	CCOC(=O)/C=C/CC[C@H](NC(=O)c1ncsc1C)C(=O)Nc1cccn(CC(=O)NCCC(C)C)c1=O [A15, (S,E)-Ethyl 7-(1-(2-(isopentylamino)-2-oxoethyl)-2-oxo-1,2-dihydropyridin-3-ylamino)-6-(5-methylthiazole-4-carboxamido)-7-oxohept-2-enoate]
104 nM	CCOC(=O)/C=C/CC[C@H](NC(=O)c1cccnc1)C(=O)Nc1cccn(CC(=O)NCCC(C)C)c1=O [A16, (S,E)-Ethyl 7-(1-(2-(isopentylamino)-2-oxoethyl)-2-oxo-1,2-dihydropyridin-3-ylamino)-6-(nicotinamido)-7-oxohept-2-enoate]
63 nM	CCOC(=O)/C=C/CC[C@H](NC(=O)c1cc(C(F)(F)F)cc(C(F)(F)F)c1)C(=O)Nc1cccn(CC(=O)NCCC(C)C)c1=O [A17, (S,E)-Ethyl 6-(3,5-bis(trifluoromethyl)benzamido)-7-(1-(2-(isopentylamino)-2-oxoethyl)-2-oxo-1,2-dihydropyridin-3-ylamino)-7-oxohept-2-enoate]
175 nM	CCOC(=O)/C=C/CC[C@H](NC(=O)c1ccc(N2CCCCC2)cc1)C(=O)Nc1cccn(CC(=O)NCCC(C)C)c1=O [A18, (S,E)-Ethyl 7-(1-(2-(isopentylamino)-2-oxoethyl)-2-oxo-1,2-dihydropyridin-3-ylamino)-7-oxo-6-(4-(piperidin-1-yl)benzamido)hept-2-enoate]
202 nM	CCOC(=O)/C=C/CC[C@H](NC(=O)c1ccc(N2CCN(C)CC2)cc1)C(=O)Nc1cccn(CC(=O)NCCC(C)C)c1=O [A20, (S,E)-Ethyl 7-(1-(2-(isopentylamino)-2-oxoethyl)-2-oxo-1,2-dihydropyridin-3-ylamino)-6-(4-(4-methylpiperazin-1-yl)benzamido)-7-oxohept-2-enoate]
111 nM	CCOC(=O)/C=C/CC[C@H](NC(=O)c1ccc2c(c1)OCCN2C)C(=O)Nc1cccn(CC(=O)NCCC(C)C)c1=O [A21, (S,E)-Ethyl 7-(1-(2-(isopentylamino)-2-oxoethyl)-2-oxo-1,2-dihydropyridin-3-ylamino)-6-(4-methyl-3,4-dihydro-2H-benzo[b][1,4]oxazine-7-carboxamido)-7-oxohept-2-enoate]
133 nM	CCOC(=O)/C=C/CC[C@H](NS(=O)(=O)c1ccccc1)C(=O)Nc1cccn(CC(=O)NCCC(C)C)c1=O [A22, (S,E)-Ethyl 7-(1-(2-(isopentylamino)-2-oxoethyl)-2-oxo-1,2-dihydropyridin-3-ylamino)-7-oxo-6-(phenylsulfonamido)hept-2-enoate]
475 nM	CCOC(=O)/C=C/CC[C@H](NS(=O)(=O)c1ccc(O)c(C(=O)O)c1)C(=O)Nc1cccn(CC(=O)NCCC(C)C)c1=O [A23, (S,E)-5-(N-(7-Ethoxy-1-(1-(2-(isopentylamino)-2-oxoethyl)-2-oxo-1,2-dihydropyridin-3-ylamino)-1,7-dioxohept-5-en-2-yl)sulfamoyl)-2-hydroxybenzoic acid]
4800 nM	CCOC(=O)/C=C/CC[C@H](NC(C)=O)C(=O)Nc1cccn(CC(=O)NCCN(CC)CC)c1=O [A25, (S,E)-Ethyl 6-acetamido-7-(1-(2-(2-(diethylamino)ethylamino)-2-oxoethyl)-2-oxo-1,2-dihydropyridin-3-ylamino)-7-oxohept-2-enoate]
5400 nM	CCOC(=O)/C=C/CC[C@H](NC(=O)CCC(=O)O)C(=O)Nc1cccn(CC(=O)NCCN(CC)CC)c1=O [A26, (S,E)-4-(1-(1-(2-(2-(Diethylamino)ethylamino)-2-oxoethyl)-2-oxo-1,2-dihydropyridin-3-ylamino)-7-ethoxy-1,7-dioxohept-5-en-2-ylamino)-4-oxobutanoic acid]
5200 nM	CCOC(=O)/C=C/CC[C@H](NC(C)=O)C(=O)Nc1cccn(CC(=O)NCCN(C)C)c1=O [A27, (S,E)-Ethyl 6-acetamido-7-(1-(2-(2-(dimethylamino)ethylamino)-2-oxoethyl)-2-oxo-1,2-dihydropyridin-3-ylamino)-7-oxohept-2-enoate]
124 nM	CCOC(=O)/C=C/CC[C@H](NC(C)=O)C(=O)Nc1cccn(CC(=O)N[C@@H](CC(C)C)C(=O)OC)c1=O [A31, (S,E)-Ethyl 6-acetamido-7-(1-(2-((S)-1-methoxy-4-methyl-1-oxopentan-2-ylamino)-2-oxoethyl)-2-oxo-1,2-dihydropyridin-3-ylamino)-7-oxohept-2-enoate]
194 nM	CCOC(=O)/C=C/CC[C@H](NC(=O)CCC(=O)O)C(=O)Nc1cccn(CC(=O)N[C@@H](CC(C)C)C(=O)OC)c1=O [A32, 4-((S,E)-7-Ethoxy-1-(1-(2-((S)-1-methoxy-4-methyl-1-oxopentan-2-ylamino)-2-oxoethyl)-2-oxo-1,2-dihydropyridin-3-ylamino)-1,7-dioxohept-5-en-2-ylamino)-4-oxobutanoic acid]
493 nM	CCOC(=O)/C=C/CC[C@H](NC(C)=O)C(=O)Nc1cccn(CC(=O)N[C@H](CC(C)C)C(=O)OC)c1=O [A33, (S,E)-Ethyl 6-acetamido-7-(1-(2-((R)-1-methoxy-4-methyl-1-oxopentan-2-ylamino)-2-oxoethyl)-2-oxo-1,2-dihydropyridin-3-ylamino)-7-oxohept-2-enoate]
640 nM	CCOC(=O)/C=C/CC[C@H](NC(=O)CCC(=O)O)C(=O)Nc1cccn(CC(=O)N[C@H](CC(C)C)C(=O)OC)c1=O [A34, 4-((S,E)-7-Ethoxy-1-(1-(2-((R)-1-methoxy-4-methyl-1-oxopentan-2-ylamino)-2-oxoethyl)-2-oxo-1,2-dihydropyridin-3-ylamino)-1,7-dioxohept-5-en-2-ylamino)-4-oxobutanoic acid]
88 nM	CCOC(=O)/C=C/CC[C@H](NC(=O)CCC(=O)O)C(=O)Nc1cccn(CC(=O)N[C@H](C(=O)OC)[C@H](C)CC)c1=O [A36, 4-((S,E)-7-Ethoxy-1-(1-(2-((2S,3R)-1-methoxy-3-methyl-1-oxopentan-2-ylamino)-2-oxoethyl)-2-oxo-1,2-dihydropyridin-3-ylamino)-1,7-dioxohept-5-en-2-ylamino)-4-oxobutanoic acid]
340 nM	CCOC(=O)/C=C/CC[C@H](NC(=O)CCC(=O)O)C(=O)Nc1cccn(CC(=O)NCc2ccc(C(F)(F)F)cc2)c1=O [A37, (S,E)-4-(7-Ethoxy-1,7-dioxo-1-(2-oxo-1-(2-oxo-2-(4-(trifluoromethyl)benzylamino)ethyl)-1,2-dihydropyridin-3-ylamino)hept-5-en-2-ylamino)-4-oxobutanoic acid]
175 nM	CCOC(=O)/C=C/CC[C@H](NC(=O)CCC(=O)O)C(=O)Nc1cccn(CC(=O)NCCC(C)(C)C)c1=O [A38, (S,E)-4-(1-(1-(2-(3,3-Dimethylbutylamino)-2-oxoethyl)-2-oxo-1,2-dihydropyridin-3-ylamino)-7-ethoxy-1,7-dioxohept-5-en-2-ylamino)-4-oxobutanoic acid]
115 nM	CCOC(=O)/C=C/CC[C@H](NC(C)=O)C(=O)Nc1cccn(CC(=O)NCCC(C)(C)C)c1=O [A39, (S,E)-Ethyl 6-acetamido-7-(1-(2-(3,3-dimethylbutylamino)-2-oxoethyl)-2-oxo-1,2-dihydropyridin-3-ylamino)-7-oxohept-2-enoate]
131 nM	CCOC(=O)/C=C/CC[C@H](NC(C)=O)C(=O)Nc1cccn(CC(=O)N[C@@H](CC(C)(C)C)C(=O)OC)c1=O [A40, (S,E)-Ethyl 6-acetamido-7-(1-(2-((S)-1-methoxy-4,4-dimethyl-1-oxopentan-2-ylamino)-2-oxoethyl)-2-oxo-1,2-dihydropyridin-3-ylamino)-7-oxohept-2-enoate]
